“Also recorded” adds a separate entry of the source.
Tests used:
[1] = in vitro; details: human
[2] = test system: SARS-CoV-2 RNA interacting human proteins; parameters: ACT_VALUE, ACT_TYPE ID50: unit not given here; details: cited from earlier work
[3] = test system: SARS-CoV-2 (IPBCAMS-YL01/2020); assay: Antiviral assay, bona fide SARS-CoV-2 in Huh7.5.1 cells; format: cell-based; details: IPBCAMS-YL01/2020, human liver Huh7.5.1 cells
[4] = target: T1, HSP90AB1 (Homo sapiens, UniProt P08238); assay: biochemical; format: binding
T1 construct: HSP90AB1 protein was detected using a specific antibody after the A549 cells were treated with Cepharanthine; endogenous in cells; host or cells: A549

[5] = target: T1, HSP90AB1; format: cell-based
[6] = test system: SARS-CoV-2 (IPBCAMS-YL01/2020); parameters: species or system hACE2 transgenic mice; details: mouse, in vivo
[7] = test system: EBOVΔVP30-GFP virus (strain Zaire Mayinga)
[8] = test system: SARS-CoV-2; parameters: method as in PMID 32707573; details: at 2.5 μM; cited from earlier work
[9] = test system: SARS-CoV-2 virus entry; details: read-out: IC50, antiviral activity in virus entry inhibitor screen; cited from earlier work
[10] = test system: SARS-CoV-2 (IPBCAMS-YL01/2020); assay: in vitro; details: human
[11] = test system: SARS-CoV-2 (IPBCAMS-YL01/2020); assay: microbe, parasite or virus in culture; details: Severe acute respiratory syndrome coronavirus 2, A549-ACE2, 48 h, read-out: IC50 (half maximal inhibitory concentration), SARS-CoV-2 IPBCAMS-YL01/2020
[12] = test system: EBOVΔVP30-GFP virus (strain Zaire Mayinga); assay: microbe, parasite or virus in culture; details: Zaire ebolavirus, 72 h, read-out: IC50, EBOVΔVP30-GFP
[13] = Cell viability assay (CellTiter-Glo), Huh7 cells; details: human
[14] = Solubility in water (statement in formulation method)
[15] = test system: ZIKV (MR766); assay: Antiviral assay, ZIKV in Huh7 cells (4G2 immunostaining, high-content imaging); details: for SI (CC50/IC50), ZIKV: Huh7 cells; for IC50: Zika virus, Huh-7, 72 h, read-out: IC50, ZIKV
[16] = in vitro; details: human; remark: listed apart in the source
[17] = target: aldehyde dehydrogenase 2 family member (ALDH2); parameters: method as in IUPHAR/BPS Guide to PHARMACOLOGY, pubmed_id 18613661; details: In vitro inhibition of recombinant human mitochondrial aldehyde dehydrogenase, ref IUPHAR/BPS Guide to PHARMACOLOGY, pubmed_id 18613661, cited from earlier work
[18] = target: TUBB (Homo sapiens, UniProt P07437); assay: Cellular thermal shift assay (CETSA) in A549 cells, TUBB; format: cell-based
[19] = test system: TUBB cytoskeletal networks; assay: Immunofluorescence of the TUBB-containing cytoskeleton in Caco-2 cells; format: cell-based, human; details: 0.5 µM, 6 h
[20] = target: (GGCT); parameters: method as in IUPHAR/BPS Guide to PHARMACOLOGY, pubmed_id 17260973; details: assay_description: pKa= 9.71, ref IUPHAR/BPS Guide to PHARMACOLOGY, pubmed_id 17260973, cited from earlier work
[21] = test system: isocitrate dehydrogenase (NADP(+)) 2 (IDH2); parameters: method as in IUPHAR/BPS Guide to PHARMACOLOGY, pubmed_id 32071674; details: ref IUPHAR/BPS Guide to PHARMACOLOGY, pubmed_id 32071674; cited from earlier work
[22] = test system: heat shock protein 90 alpha family class B member 1 (HSP90AB1); parameters: method as in earlier work; details: ref IUPHAR/BPS Guide to PHARMACOLOGY (geldanamycin pubmed_id 24984936), cited from earlier work; for IC50: read-out: original_affinity_median_nm (IC50)
[23] = read-out: original_affinity_median_nm (Ki)

T1 sequence (P08238 whole entry): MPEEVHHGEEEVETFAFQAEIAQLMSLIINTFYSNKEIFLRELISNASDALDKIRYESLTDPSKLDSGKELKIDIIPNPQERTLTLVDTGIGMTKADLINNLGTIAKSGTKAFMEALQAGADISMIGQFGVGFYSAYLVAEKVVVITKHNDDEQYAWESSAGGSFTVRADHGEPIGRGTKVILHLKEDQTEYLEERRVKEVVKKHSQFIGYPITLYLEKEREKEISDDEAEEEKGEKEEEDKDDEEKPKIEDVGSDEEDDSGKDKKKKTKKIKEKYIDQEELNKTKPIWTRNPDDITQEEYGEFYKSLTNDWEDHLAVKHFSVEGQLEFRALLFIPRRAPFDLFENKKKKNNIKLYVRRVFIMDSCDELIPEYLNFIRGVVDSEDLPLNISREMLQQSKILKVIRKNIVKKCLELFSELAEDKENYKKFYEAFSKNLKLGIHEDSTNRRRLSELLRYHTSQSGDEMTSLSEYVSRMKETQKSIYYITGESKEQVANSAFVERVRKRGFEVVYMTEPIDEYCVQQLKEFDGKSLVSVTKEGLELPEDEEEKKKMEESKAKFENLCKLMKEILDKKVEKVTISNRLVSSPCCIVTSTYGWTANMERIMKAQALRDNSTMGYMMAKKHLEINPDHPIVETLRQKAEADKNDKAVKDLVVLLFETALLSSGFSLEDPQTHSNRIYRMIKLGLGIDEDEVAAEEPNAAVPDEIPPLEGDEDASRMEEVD
Chain of TUBB (P07437 whole entry): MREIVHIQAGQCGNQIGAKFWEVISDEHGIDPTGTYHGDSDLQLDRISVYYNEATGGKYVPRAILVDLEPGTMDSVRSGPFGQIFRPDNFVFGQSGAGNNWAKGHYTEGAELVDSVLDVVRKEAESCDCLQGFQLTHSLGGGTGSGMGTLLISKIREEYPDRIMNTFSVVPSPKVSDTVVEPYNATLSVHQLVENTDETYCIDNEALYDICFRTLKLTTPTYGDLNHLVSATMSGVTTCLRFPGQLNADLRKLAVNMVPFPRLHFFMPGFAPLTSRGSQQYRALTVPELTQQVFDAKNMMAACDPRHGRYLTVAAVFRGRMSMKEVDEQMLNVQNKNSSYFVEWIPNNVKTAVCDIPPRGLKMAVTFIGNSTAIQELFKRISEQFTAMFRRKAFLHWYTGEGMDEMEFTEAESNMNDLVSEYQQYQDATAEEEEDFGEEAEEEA
Chain of TUBB (P68363 whole entry, further chain): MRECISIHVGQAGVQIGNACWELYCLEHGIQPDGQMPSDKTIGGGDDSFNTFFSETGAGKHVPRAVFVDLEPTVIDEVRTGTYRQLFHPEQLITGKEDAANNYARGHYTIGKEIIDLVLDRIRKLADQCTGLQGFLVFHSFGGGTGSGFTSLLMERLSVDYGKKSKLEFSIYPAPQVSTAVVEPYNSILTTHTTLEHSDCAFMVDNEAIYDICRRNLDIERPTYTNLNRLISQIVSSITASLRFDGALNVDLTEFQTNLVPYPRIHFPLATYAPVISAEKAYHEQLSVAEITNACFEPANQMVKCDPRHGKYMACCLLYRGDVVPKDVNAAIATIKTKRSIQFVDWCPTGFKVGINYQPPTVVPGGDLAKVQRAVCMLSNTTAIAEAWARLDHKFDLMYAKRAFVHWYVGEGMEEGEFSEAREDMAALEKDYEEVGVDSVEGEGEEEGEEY

Molecule `CNC(=O)c1cc(Oc2ccc(NC(=O)Nc3ccc(Cl)c(C(F)(F)F)c3)cc2)ccn1` [Sorafenib] has a CC50 [1] of 12900 nM.

In the case of `CC(=O)O[C@H]1C(=O)[C@@]2(C)[C@H]([C@H](OC(=O)c3ccccc3)[C@]3(O)C[C@H](OC(=O)[C@H](O)[C@@H](NC(=O)c4ccccc4)c4ccccc4)C(C)=C1C3(C)C)[C@]1(OC(C)=O)CO[C@@H]1C[C@@H]2O` [paclitaxel], the “ACT_VALUE, ACT_TYPE EC50” value [2] is given as 8.05.

With `COc1ccc2cc1Oc1ccc(cc1)C[C@H]1c3c(cc4c(c3Oc3cc5c(cc3OC)CCN(C)[C@@H]5C2)OCO4)CCN1C` [Cepharanthine] the “Antiviral effect against SARS-CoV-2 in Huh7.5.1 cells (in words)” value [3] was “confirmed”, the Kd [4] was 3500 nM and the “CETSA target engagement, HSP90AB1” value [5] was “targeted HSP90AB1; also recorded: bound to HSP90AB1 in cells”. For the same molecule, the “Viral loads in the lungs vs vehicle group at 3 dpi (qPCR)” value [6] was “no obvious differences”, the “Viral loads in the lungs vs vehicle group at 5 dpi (qPCR)” value [6] was “significant reduction” and the “Expression level of IL6 in lung vs vehicle group” value ([6]; 10 mg/kg) was “reduced”. The “Expression level of TNF in lung vs vehicle group” value ([6]; 10 mg/kg) was “reduced”, the “Lung injury and inflammation (H&E staining)” value ([6]; 10 mg/kg) was “the extent of damage was much relieved in lung tissue” and the “SI (CC50/IC50), EBOVΔVP30-GFP” value [7] was 12.10. The inhibition ratio [8] was > 40%, the IC50 [9] was 1400 nM and the selectivity ratio [10] was 18.5. The IC50 [11] was 1670 nM, the IC50 [12] was 420 nM and the CC50 at 72 h [13] was 24000 nM. The Solubility in water [14] was “insoluble in water”, the “SI (CC50/IC50), ZIKV” value [15] was 10.97 and the IC50 [15] was 2190 nM.

`CC(C)(O)CNc1nc(Nc2ccnc(C(F)(F)F)c2)nc(-c2cccc(C(F)(F)F)n2)n1` [Enasidenib, 2-Methyl-1-(4-(6-(trifluoromethyl)pyridin-2-yl)-6-(2-(trifluoromethyl)pyridin-4-ylamino)-1,3,5-triazin-2-ylamino)propan-2-ol] showed a selectivity ratio [10] of 1.17, a CC50 [16] of 24900 nM and an IC50 [11] of 28000 nM. It also gave an IC50 [15] of 13500 nM.

In the case of `COc1cc(O)c2c(=O)c(-c3ccc(O)cc3)coc2c1` [prunetin], the “affinity_median (pKi)” value [17] is given as 6.35 and the Ki [17, 23] is given as 450 nM.

In the case of `C=C1C[C@@H]2CC[C@@]34C[C@H]5O[C@H]6[C@@H](O3)[C@H]3O[C@H](CC[C@@H]3O[C@H]6[C@H]5O4)CC(=O)C[C@@H]3[C@@H](OC)[C@@H](C[C@H](O)CN)O[C@H]3C[C@H]3O[C@@H](CC[C@@H]1O2)C[C@@H](C)C3=C` [eribulin], the “ACT_VALUE, ACT_TYPE IC50” value [2] is listed as 8.23.

`COc1cc2c(cc1OC)[C@@H]1C(=O)c3ccc4c(c3O[C@@H]1CO2)C=CC(C)(C)O4` [Deguelin] gave a CC50 [1] of 34700 nM.

For `CN1CCN(CCCN2c3ccccc3Sc3ccc(C(F)(F)F)cc32)CC1` [Trifluoperazine], the “Antiviral effect against SARS-CoV-2 in Huh7.5.1 cells (in words)” value [3] was “confirmed”, the “CETSA, thermal stability of TUBB” value [18] was “slightly affected the thermal stability of TUBB” and the “Architecture of the TUBB cytoskeletal networks (immunofluorescence)” value [19] was “architecture of the TUBB cytoskeletal networks was disrupted”. For the same molecule, the “SI (CC50/IC50), EBOVΔVP30-GFP” value [7] was 2.18, the selectivity ratio [10] was 10.7 and the IC50 [11] was 3460 nM. For the same molecule, the IC50 [12] was 1790 nM, the CC50 at 72 h [13] was 7790 nM and the “SI (CC50/IC50), ZIKV” value [15] was 8.11. For the same molecule, the IC50 [15] was 960 nM.

For `COP(=O)(CCC(N)C(=O)O)Oc1cccc(CC(=O)O)c1` (stereo not drawn) [GGsTop], the “affinity_median (pKi)” value [20] is given as 3.77 and the Ki [20, 23] is given as 170000 nM.

For `C[C@@H](Nc1nc(N[C@H](C)C(F)(F)F)nc(-c2cccc(Cl)n2)n1)C(F)(F)F` [vorasidenib], the “assay_description (result in words)” value [21] is listed as “Inhibits mutant IDH2”.

For `COC1=C2C[C@@H](C)C[C@H](OC)[C@H](O)[C@@H](C)/C=C(\C)[C@H](OC(N)=O)[C@@H](OC)/C=C\C=C(/C)C(=O)NC(=CC1=O)C2=O` [geldanamycin], the “affinity_median (pIC50)” value [22] is listed as 6.55 and the IC50 [22] is listed as 282 nM.

For `CC[C@]1(O)C[C@@H]2CN(CCc3c([nH]c4ccccc34)[C@@](C(=O)OC)(c3cc4c(cc3OC)N(C)[C@H]3[C@@](O)(C(=O)OC)[C@H](OC(C)=O)[C@]5(CC)C=CCN6CC[C@]43[C@@H]65)C2)C1` [vinblastine], the “ACT_VALUE, ACT_TYPE IC50” value [2] is given as 9.

For `CC(=O)O[C@@]12CO[C@@H]1C[C@H](O)[C@@]1(C)C(=O)[C@H](O)C3=C(C)[C@@H](OC(=O)[C@H](O)[C@@H](NC(=O)OC(C)(C)C)c4ccccc4)C[C@@](O)([C@@H](OC(=O)c4ccccc4)[C@H]21)C3(C)C` [docetaxel], the “ACT_VALUE, ACT_TYPE ID50” value [2] is listed as 6.699.

For `CCNC(=O)c1noc(-c2cc(C(C)C)c(O)cc2O)c1-c1ccc(CN2CCOCC2)cc1` [luminespib], the “affinity_median (pIC50)” value [22] is given as 8.7 and the IC50 [22] is given as 2 nM.

With `COC(=O)[C@H]1[C@@H](O)[C@@]2(O)c3c(OC)cc(O[C@@H]4O[C@@H]([C@H](O)CO)CO[C@H]4OC)cc3O[C@@]2(c2ccc(OC)cc2)[C@@H]1c1ccccc1` [Silvestrol] the “SI (CC50/IC50), EBOVΔVP30-GFP” value [7] was 0.50, the IC50 [12] was 20 nM and the IC50 [15] was 10 nM.

In the case of `COc1cc([C@@H]2c3cc4c(cc3[C@H](O)[C@H]3COC(=O)[C@H]23)OCO4)cc(OC)c1OC` [podophyllotoxin], the “ACT_VALUE, ACT_TYPE IC50” value [2] is given as 6.

From publication PMC8566969, “Comparison of viral RNA–host protein interactomes across pathogenic RNA viruses informs rapid antiviral drug discovery for SARS-CoV-2” (Cell Research, 2021)
